The values below come from ChEMBL document CHEMBL1759838, “Synthesis and SAR of acyclic HCV NS3 protease inhibitors with novel P4-benzoxaborole moieties” (Bioorg Med Chem Lett, 2011).

Data set [1] in a line: Inhibition of Hepatitis C virus genotype 1a NS3/4A protease activity using (Ac-DE-D(EDANS)-EE-Abu-w-[COO]-AS-K(DABCYL)-NH2 peptide substrate by FRET assay. More on the design: species or system Hepatitis C virus subtype 1a.
The subject of data set [2] is Hepatitis C virus. The data set is described as follows: Antiviral activity against Hepatitis C virus genotype 1a by cell based assay. Conditions: subtype 1a. Type of data set: functional, organism-based, Hepacivirus hominis.
Data set [3] has as its system Hepatitis C virus. The data set is described as follows: Antiviral activity against Hepatitis C virus genotype 1b by cell based assay. Type of data set: functional, organism-based, Hepacivirus hominis.
A short description of data set [4]: Clearance in Sprague-Dawley rat at 1 mg/kg, iv. The class given is ADME, organism-based. The arrangement: dose 1 mg/kg, route intravenous. The following applies: in vivo.
Data set [5] can be described thus: Inhibition of Hepatitis C virus genotype 1a NS3/4A protease activity using Ac-DE-Dap(QXL520)-EE-Abu-w-[COO]-ASC(5-FAMsp)-NH2 peptide substrate by FRET assay. The arrangement: species or system Hepatitis C virus subtype 1a.
Data set [6] in a line: Oral bioavailability in Sprague-Dawley rat at 5 mg/kg, po. Type of data set: ADME, organism-based. The following applies: in vivo.
The nature of data set [7]: Absorption in Sprague-Dawley rat at 5 mg/kg, po. More on the design: dose 5 mg/kg, route oral. The class given is ADME, organism-based. Conditions: in vivo, read-out: Activity.
Data set [8] can be described thus: AUC (0 to infinity) in Sprague-Dawley rat at 5 mg/kg, po. Type of data set: ADME, organism-based. More on the design: dose 5 mg/kg, route oral, time infinity. The following applies: plasma.
The nature of data set [9]: Lipophilicity, log D of the compound. Conditions: octanol/water. Type of data set: physicochemical.

Take `C=C[C@@H]1C[C@]1(NC(=O)[C@@H]1C[C@@H](Oc2ncc(OC)c3ccc(Cl)cc23)CN1C(=O)C(Nc1ccc2c(c1)B(O)OC2)C(C)(C)C)C(=O)NS(=O)(=O)C1CC1` (single isomer, unassigned; diastereomer 2): half-maximal inhibition in data set [1] (IC50) required 350 nM.
`C=C[C@@H]1C[C@]1(NC(=O)[C@@H]1C[C@@H](Oc2cc(-c3nc(C(C)C)cs3)nc3c(C)c(OC)ccc23)CN1C(=O)[C@@H](NC(=O)Nc1cc2c(cc1F)COB2O)C(C)(C)C)C(=O)NS(=O)(=O)C1CC1`: the EC50 (usually the concentration that produces a half-maximal response) in the data set with Hepatitis C virus [2] is 8.1 nM; in the data set with Hepatitis C virus [3] it was 8.6 nM. For the same compound, the IC50 (in general, the point on the concentration scale where inhibition reaches its midpoint) in data set [1] is 3.1 nM.
The corresponding values for `C=C[C@@H]1C[C@]1(NC(=O)[C@@H]1C[C@@H](Oc2ncc(OC)c3ccc(Cl)cc23)CN1C(=O)[C@@H](NC(=O)Nc1cccc2c1COB2O)C(C)(C)C)C(=O)NS(=O)(=O)C1CC1` are 500 nM, 81 nM and 4 nM.
On the same counts, the results for `C=C[C@@H]1C[C@]1(NC(=O)[C@@H]1C[C@@H](Oc2ncc(OC)c3ccc(Cl)cc23)CN1C(=O)[C@@H](NC(=O)Nc1cc2c(cc1Cl)COB2O)C(C)(C)C)C(=O)NS(=O)(=O)C1CC1` are 47 nM, 34 nM and 1.3 nM.
The corresponding values for `C=C[C@@H]1C[C@]1(NC(=O)[C@@H]1C[C@@H](Oc2ncc(OC)c3ccc(Cl)cc23)CN1C(=O)[C@@H](NC(=O)Nc1cccc2c1B(O)OC2)C(C)(C)C)C(=O)NS(=O)(=O)C1CC1` are 65 nM, 38 nM and 16 nM.
For the compound `C=C[C@@H]1C[C@]1(NC(=O)[C@@H]1C[C@@H](Oc2ncc(OC)c3ccc(Cl)cc23)CN1C(=O)[C@@H](NC(=O)Nc1ccc2c(c1)B(O)OC2)C(C)(C)C)C(=O)NS(=O)(=O)C1CC1`, the clearance (as a rule, the volume of plasma or blood freed of the substance per unit of time) in data set [4] was 7.93 mL/min/kg. In addition, the 50% inhibitory concentration (IC50) in data set [5] came out at 2.2 nM. Besides, the bioavailability (usually the share of a dose that reaches the circulation, judged against a reference dose that is usually intravenous) in data set [6] stood at 0.42%. Moreover, in [7], the Fa was determined as 0.92%. In addition, the EC50 worked out at 160 nM in the data set with Hepatitis C virus [2] and 24 nM with Hepatitis C virus [3]. In addition, the AUC(0-inf) (commonly total exposure, with the tail of the curve extrapolated) in data set [8] turned out to be 41 ng·h/mL. For the same compound, the logD – broadly, lipophilicity at a set pH, counting ionised and neutral species – in data set [9] worked out at 4.5.
In the case of `C=C[C@@H]1C[C@]1(NC(=O)[C@@H]1C[C@@H](Oc2ncc(OC)c3ccc(Cl)cc23)CN1C(=O)[C@@H](NC(=O)Oc1ccc2c(c1)B(O)OC2)C(C)(C)C)C(=O)NS(=O)(=O)C1CC1`, in data set [5], the IC50 stood at 1.3 nM. Also, the EC50 with Hepatitis C virus [2] amounted to 170 nM; with Hepatitis C virus [3], 23 nM.
On to `C=C[C@@H]1C[C@]1(NC(=O)[C@@H]1C[C@@H](Oc2ncc(OC)c3ccc(Cl)cc23)CN1C(=O)[C@@H](NC(=O)Nc1cc2c(cc1F)COB2O)C(C)(C)C)C(=O)NS(=O)(=O)C1CC1`, for which, in data set [5], the IC50 came out at 1.7 nM. Moreover, the EC50 in the data set on Hepatitis C virus [2] stood at 31 nM; in the data set on Hepatitis C virus [3], 4.3 nM.
In the case of `C=C[C@@H]1C[C@]1(NC(=O)[C@@H]1C[C@@H](Oc2ncc(OC)c3ccc(Cl)cc23)CN1C(=O)[C@@H](NC(=O)NCc1ccc2c(c1)B(O)OC2)C(C)(C)C)C(=O)NS(=O)(=O)C1CC1`, the EC50 in the data set with Hepatitis C virus [2] is 130 nM; in the data set with Hepatitis C virus [3] it was 25 nM. Half-maximal inhibition in data set [1] (IC50) required 2 nM.
Turning to `C=C[C@@H]1C[C@]1(NC(=O)[C@@H]1C[C@@H](OC(=O)N2Cc3cccc(F)c3C2)CN1C(=O)[C@@H](NC(=O)Nc1cc2c(cc1F)COB2O)C(C)(C)C)C(=O)NS(=O)(=O)C1CC1`, it took 1.1 nM to reach half-maximal inhibition in data set [5] (IC50). Moreover, the concentration giving a half-maximal response (EC50) stood at 360 nM in the data set on Hepatitis C virus [2] and 56 nM with Hepatitis C virus [3].
`C=C[C@@H]1C[C@]1(NC(=O)[C@@H]1C[C@@H](Oc2ncc(OC)c3ccc(Cl)cc23)CN1C(=O)[C@@H](NC(=O)c1ccc2c(c1)B(O)OC2)C(C)(C)C)C(=O)NS(=O)(=O)C1CC1`: the EC50 in the data set with Hepatitis C virus [2] stood at 290 nM; with Hepatitis C virus [3], 91 nM. This compound showed an IC50 in [1] of 4.6 nM.
With `C=C[C@@H]1C[C@]1(NC(=O)[C@@H]1C[C@@H](Oc2ncc(OC)c3ccc(Cl)cc23)CN1C(=O)[C@@H](Nc1ccc2c(c1)B(O)OC2)C(C)(C)C)C(=O)NS(=O)(=O)C1CC1`, the clearance in [4] is 48.8 mL/min/kg. The same compound had a bioavailability in data set [6] of 4.3%. The Fa in data set [7] is 4.9%. The EC50 in the data set on Hepatitis C virus [2] came out at 110 nM; with Hepatitis C virus [3], 34 nM. In [8], this compound showed an AUC(0-inf) of 75 ng·h/mL. This compound yielded a logD in [9] of 4. Also, the IC50 in data set [1] worked out at 4.5 nM.
Consider `C=C[C@@H]1C[C@]1(NC(=O)[C@@H]1C[C@@H](Oc2ncc(OC)c3ccc(Cl)cc23)CN1C(=O)[C@@H](NC(=O)Nc1ccc2c(c1)B(O)OC2(C)C)C(C)(C)C)C(=O)NS(=O)(=O)C1CC1`, for which the EC50 in the data set on Hepatitis C virus [2] was found to be 280 nM; in the data set with Hepatitis C virus [3], 130 nM. In data set [1], this compound came in with an IC50 of 26 nM.
